Measured values from ChEMBL document CHEMBL2439971, “Design, synthesis and antiproliferative evaluation of fluorenone analogs with DNA topoisomerase I inhibitory properties” (Bioorg Med Chem, 2013).
Active and inactive are the calls of the source. No cut-off for these calls is given here.

Tests used:
[1] = species: Homo sapiens; experiment: Inhibition of telomerase (unknown origin) at 10 uM TRAP assay
[2] = system: PC-3; experiment: Cytotoxicity against human PC3 cells after 48 hrs by sulforhodamine B assay; assay type: functional, cell-based; details: PC-3, 48 h

Row | Structure (SMILES) | inhibition [1] | IC50 [2]
1 | CCCCNCCC(=O)Nc1ccc2c(c1)C(=O)c1cc(NC(=O)CCNCCCC)ccc1-2 | inactive | 26.9 µM
2 | CCSCC(=O)Nc1ccc2c(c1)C(=O)c1cc(NC(=O)CSCC)ccc1-2 | inactive | > 30 µM
3 | CC(C)SCCC(=O)Nc1ccc2c(c1)C(=O)c1cc(NC(=O)CCSC(C)C)ccc1-2 | inactive | > 30 µM
4 | O=C(CN1CCCCC1)Nc1ccc2c(c1)C(=O)c1cc(NC(=O)CN3CCCCC3)ccc1-2 | inactive | > 30 µM
5 | O=C(CSCCO)Nc1ccc2c(c1)C(=O)c1cc(NC(=O)CSCCO)ccc1-2 | inactive | > 30 µM
6 | CCCNCCC(=O)Nc1ccc2c(c1)C(=O)c1cc(NC(=O)CCNCCC)ccc1-2 | inactive | 20.8 µM
7 | O=C(CCN1CCCC1)Nc1ccc2c(c1)C(=O)c1cc(NC(=O)CCN3CCCC3)ccc1-2 | inactive | 6.06 µM
8 | CC(C)SCC(=O)Nc1ccc2c(c1)C(=O)c1cc(NC(=O)CSC(C)C)ccc1-2 | inactive | > 30 µM
9 | O=C(CCNCCO)Nc1ccc2c(c1)C(=O)c1cc(NC(=O)CCNCCO)ccc1-2 | inactive | 19.2 µM
10 | O=C(CN1CCOCC1)Nc1ccc2c(c1)C(=O)c1cc(NC(=O)CN3CCOCC3)ccc1-2 | inactive | > 30 µM
11 | O=C(CNCCO)Nc1ccc2c(c1)C(=O)c1cc(NC(=O)CNCCO)ccc1-2 | inactive | > 30 µM
12 | CC(C)NCCC(=O)Nc1ccc2c(c1)C(=O)c1cc(NC(=O)CCNC(C)C)ccc1-2 | inactive | 10 µM
13 | O=C(CCN1CCCCC1)Nc1ccc2c(c1)C(=O)c1cc(NC(=O)CCN3CCCCC3)ccc1-2 | inactive | 6.26 µM
14 | O=C1c2cc([N+](=O)[O-])ccc2-c2ccc([N+](=O)[O-])cc21 | inactive | > 30 µM
15 | O=C(CCCl)Nc1ccc2c(c1)C(=O)c1cc(NC(=O)CCCl)ccc1-2 | inactive | > 30 µM
16 | O=C(CCl)Nc1ccc2c(c1)C(=O)c1cc(NC(=O)CCl)ccc1-2 | inactive | 0.55 µM
17 | CC(C)NCC(=O)Nc1ccc2c(c1)C(=O)c1cc(NC(=O)CNC(C)C)ccc1-2 | inactive | 6.19 µM
18 | Nc1ccc2c(c1)C(=O)c1cc(N)ccc1-2 | inactive | > 30 µM
19 | CC(C)CNCC(=O)Nc1ccc2c(c1)C(=O)c1cc(NC(=O)CNCC(C)C)ccc1-2 | inactive | > 30 µM
20 | CCCSCCC(=O)Nc1ccc2c(c1)C(=O)c1cc(NC(=O)CCSCCC)ccc1-2 | inactive | > 30 µM
